In ChEMBL document CHEMBL1671765, “Microbiologic and clinical implications of bacteremia due to extended-spectrum-beta-lactamase-producing Klebsiella pneumoniae with or without plasmid-mediated AmpC beta-lactamase DHA-1” (2010):
Values after ≈ are worked out from the molar mass of the structure shown.

Legend:
Format in all cases: functional
[1] = system: Klebsiella pneumoniae; experiment: Antibacterial activity against ESBL-producing Klebsiella pneumoniae by Etest
[2] = system: Klebsiella pneumoniae; experiment: Antibacterial activity against plasmid-mediated AmpC beta-Lactamase DHA-1 and ESBL-producing Klebsiella pneumoniae by Etest
[3] = system: Klebsiella pneumoniae; experiment: Antibacterial activity against ESBL-producing Klebsiella pneumoniae by Etest in presence of Tazobactam
[4] = system: Klebsiella pneumoniae; experiment: Antibacterial activity against plasmid-mediated AmpC beta-Lactamase DHA-1 and ESBL-producing Klebsiella pneumoniae by Etest in presence of Tazobactam

MIC [1] [µg/mL] | MIC [2] [µg/mL] | MIC50 [3] [µg/mL] | MIC90 [3] [µg/mL] | MIC50 [4] [µg/mL] | MIC90 [4] [µg/mL] | Structure (SMILES) | MIC50 [1] [µg/mL] | MIC90 [1] [µg/mL] | MIC50 [2] [µg/mL] | MIC90 [2] [µg/mL]
0.015 (≈ 0.0315 µM) | 0.5 (≈ 1.05 µM) | – | – | – | – | C[C@@H](O)[C@H]1C(=O)N2C(C(=O)O)=C(S[C@@H]3CN[C@H](C(=O)Nc4cccc(C(=O)O)c4)C3)[C@H](C)[C@H]12 [ERTAPENEM] | 0.015 (≈ 0.0315 µM) | 0.5 (≈ 1.05 µM) | 0.5 (≈ 1.05 µM) | 2 (≈ 4.21 µM)
– | – | – | – | – | – | O=C(O)c1cn(C2CC2)c2cc(N3CCNCC3)c(F)cc2c1=O [CIPROFLOXACIN] | 0.125 (≈ 0.377 µM) | 8 (≈ 24.1 µM) | > 32 | > 32
– | – | – | – | – | – | NCC[C@H](O)C(=O)N[C@@H]1C[C@H](N)[C@@H](O[C@H]2O[C@H](CN)[C@@H](O)[C@H](O)[C@H]2O)[C@H](O)[C@H]1O[C@H]1O[C@H](CO)[C@@H](O)[C@H](N)[C@H]1O [AMIKACIN] | 4 (≈ 6.83 µM) | 32 (≈ 54.6 µM) | > 256 | > 256
– | – | – | – | – | – | C[C@@H](O)[C@H]1C(=O)N2C(C(=O)O)=C(S[C@@H]3CN[C@H](C(=O)N(C)C)C3)[C@H](C)[C@H]12 [MEROPENEM] | 0.03 (≈ 0.0782 µM) | 0.06 (≈ 0.156 µM) | 0.12 (≈ 0.313 µM) | 0.5 (≈ 1.3 µM)
– | – | 8 | 32 | 8 | 64 | CCN1CCN(C(=O)N[C@@H](C(=O)N[C@@H]2C(=O)N3[C@@H]2SC(C)(C)[C@@H]3C(=O)O)c2ccccc2)C(=O)C1=O [PIPERACILLIN] | – | – | – | –
– | – | – | – | – | – | C[C@@H](O)[C@H]1C(=O)N2C(C(=O)O)=C(SCCNC=N)C[C@H]12 [IMIPENEM ANHYDROUS] | 0.25 (≈ 0.835 µM) | 0.5 (≈ 1.67 µM) | 0.5 (≈ 1.67 µM) | 2 (≈ 6.68 µM)
